According to publication doi:10.1101/757047v1 (biorxiv, 2019):

Key:
[1] = target: T1, GAK (Homo sapiens, UniProt O14976); assay: TR-FRET binding displacement assay
T1 sequence (O14976 12-347 limits assumed): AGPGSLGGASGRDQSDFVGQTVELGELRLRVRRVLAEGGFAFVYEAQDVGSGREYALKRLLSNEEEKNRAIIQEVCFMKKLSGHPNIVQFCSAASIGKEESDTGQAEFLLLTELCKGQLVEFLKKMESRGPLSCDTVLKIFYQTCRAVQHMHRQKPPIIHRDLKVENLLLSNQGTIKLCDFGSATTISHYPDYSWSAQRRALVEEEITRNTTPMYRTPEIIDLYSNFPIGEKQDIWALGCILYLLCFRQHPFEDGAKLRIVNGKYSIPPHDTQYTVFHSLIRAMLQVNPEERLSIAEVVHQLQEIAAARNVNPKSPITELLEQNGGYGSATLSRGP

[2] = target: T2, full length GAK protein N-terminally fused with NanoLuc luciferase (Homo sapiens, UniProt O14976); assay: nanoBRET cellular target engagement; assay type: cell-based
T2 sequence (O14976 2-1311): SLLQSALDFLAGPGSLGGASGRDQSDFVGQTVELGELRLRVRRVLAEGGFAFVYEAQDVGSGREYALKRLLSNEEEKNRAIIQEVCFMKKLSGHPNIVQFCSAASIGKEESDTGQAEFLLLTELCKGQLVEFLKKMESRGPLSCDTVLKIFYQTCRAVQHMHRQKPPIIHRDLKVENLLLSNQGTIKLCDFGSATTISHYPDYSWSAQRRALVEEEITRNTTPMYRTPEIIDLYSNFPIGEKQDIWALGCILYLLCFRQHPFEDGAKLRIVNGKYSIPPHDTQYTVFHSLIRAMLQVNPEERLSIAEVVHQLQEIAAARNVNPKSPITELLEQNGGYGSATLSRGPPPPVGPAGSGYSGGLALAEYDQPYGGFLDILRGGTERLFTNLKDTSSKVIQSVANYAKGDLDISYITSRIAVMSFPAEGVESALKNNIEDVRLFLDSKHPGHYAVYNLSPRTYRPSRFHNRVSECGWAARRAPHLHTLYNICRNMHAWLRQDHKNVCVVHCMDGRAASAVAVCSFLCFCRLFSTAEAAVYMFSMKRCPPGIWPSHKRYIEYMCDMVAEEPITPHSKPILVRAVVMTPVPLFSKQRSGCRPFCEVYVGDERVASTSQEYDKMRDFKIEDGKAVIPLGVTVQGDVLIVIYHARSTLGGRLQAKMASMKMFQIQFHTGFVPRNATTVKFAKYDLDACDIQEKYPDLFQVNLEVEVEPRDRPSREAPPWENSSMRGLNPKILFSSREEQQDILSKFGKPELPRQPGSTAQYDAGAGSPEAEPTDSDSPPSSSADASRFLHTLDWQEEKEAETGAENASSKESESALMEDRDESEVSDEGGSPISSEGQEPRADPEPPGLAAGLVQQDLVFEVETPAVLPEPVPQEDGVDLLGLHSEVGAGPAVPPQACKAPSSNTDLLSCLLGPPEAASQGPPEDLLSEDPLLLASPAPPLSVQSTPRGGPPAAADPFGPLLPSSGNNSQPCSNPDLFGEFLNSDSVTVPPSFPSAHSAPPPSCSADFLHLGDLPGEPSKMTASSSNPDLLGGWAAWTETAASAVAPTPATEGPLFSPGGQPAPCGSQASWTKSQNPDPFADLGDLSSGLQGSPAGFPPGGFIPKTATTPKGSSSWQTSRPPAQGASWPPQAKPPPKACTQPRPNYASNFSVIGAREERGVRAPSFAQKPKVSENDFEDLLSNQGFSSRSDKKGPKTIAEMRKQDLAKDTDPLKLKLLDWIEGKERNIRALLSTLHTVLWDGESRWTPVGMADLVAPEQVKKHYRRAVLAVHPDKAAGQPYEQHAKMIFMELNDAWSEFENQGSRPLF

[3] = target: T3, STK10 (Homo sapiens, UniProt O94804); assay: TR-FRET binding displacement assay
[4] = target: T4, SLK (Homo sapiens, UniProt Q9H2G2); assay: TR-FRET binding displacement assay
[5] = target: T3, STK10; assay: biochemical
[6] = target: T4, SLK; assay: biochemical
[7] = target: T1, GAK; assay: biochemical
[8] = target: T2, full length GAK protein N-terminally fused with NanoLuc luciferase; assay: cell-based; parameters: species or system HEK293T
[9] = target: T2, full length GAK protein N-terminally fused with NanoLuc luciferase; assay: cell-based; parameters: species or system HEK293T; remark: listed apart in the source
[10] = target: T1, GAK; assay: biochemical; remark: listed apart in the source
[11] = target: T3, STK10; assay: biochemical; remark: listed apart in the source
[12] = target: T4, SLK; assay: biochemical; remark: listed apart in the source
[13] = ATP site tracer displacement, 16-point dose response

T3 sequence (O94804 36-294 limits assumed): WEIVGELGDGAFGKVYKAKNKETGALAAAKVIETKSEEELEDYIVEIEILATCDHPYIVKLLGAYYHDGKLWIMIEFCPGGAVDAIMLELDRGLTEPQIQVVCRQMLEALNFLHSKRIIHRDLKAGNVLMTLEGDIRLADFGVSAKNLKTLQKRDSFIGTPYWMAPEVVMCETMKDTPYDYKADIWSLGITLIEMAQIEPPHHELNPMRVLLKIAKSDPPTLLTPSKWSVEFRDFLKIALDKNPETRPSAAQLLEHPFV
T4 sequence (Q9H2G2 34-292): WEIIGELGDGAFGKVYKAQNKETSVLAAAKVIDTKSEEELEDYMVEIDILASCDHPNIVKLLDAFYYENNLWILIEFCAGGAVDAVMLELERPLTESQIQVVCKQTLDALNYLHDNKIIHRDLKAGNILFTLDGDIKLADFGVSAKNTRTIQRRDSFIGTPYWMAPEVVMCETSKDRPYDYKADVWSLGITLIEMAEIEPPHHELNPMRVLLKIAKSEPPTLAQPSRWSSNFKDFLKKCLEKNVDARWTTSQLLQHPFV

With COc1cc(Nc2ccnc3cc(C#N)ccc23)cc(OC)c1OC [compound 21, 21] the Ki [1, 13] was 2.7 nM, the IC50 [2] was 350 nM and the Ki [3] was 130 nM. It also gave a Ki [4] of 1100 nM.
Compound COc1ccc2c(Nc3cc(OC)c(OC)c(OC)c3)ccnc2c1 [compound 22, 22] has a Ki [1, 13] of 2.6 nM, an IC50 ([2]; HEK293T cells, tracer displacement, n=[…] mean) of 440 nM and a Ki [3] of 1300 nM. The Ki [4] was 13000 nM.
C#Cc1cccc(Nc2ncnc3ccccc23)c1 [compound 54, 54] was tested, and the Ki [5] was 10000 nM, the Ki [6] was 23000 nM and the Ki [7] was 170 nM. For the same compound, the IC50 [8] was 4500 nM.
With C#Cc1cccc(Nc2ncnc3ccc(C)cc23)c1 [compound 55, 55] the Ki [5] was 2600 nM, the Ki [6] was 4300 nM and the Ki [7] was 43 nM. For the same compound, the IC50 [8] was 3600 nM.
For C#Cc1cccc(Nc2ncnc3ccc(F)cc23)c1 [compound 56, 56], the Ki [5] was 5500 nM, the Ki [6] was 8500 nM and the Ki [7] was 70 nM. It also gave an IC50 [8] of 2000 nM.
With C#Cc1cccc(Nc2ncnc3cc(F)c(F)cc23)c1 [compound 57, 57] the Ki [5] was 2900 nM, the Ki [6] was 3800 nM and the Ki [7] was 85 nM. The IC50 [8] was greater than 5000 nM.
Compound C#Cc1cccc(Nc2ncnc3ccc(Cl)cc23)c1 [compound 58, 58] has a Ki [5] of 2800 nM, a Ki [6] of 3900 nM and a Ki [7] of 30 nM. The IC50 [8] was greater than 5000 nM.
In the case of C#Cc1cccc(Nc2ncnc3ccc(Br)cc23)c1 [compound 59, 59], the Ki [5] is reported as 2500 nM, the Ki [6] is reported as 3400 nM and the Ki [7] is reported as 28 nM. For the same compound, the IC50 [8] was greater than 5000 nM.
C#Cc1cccc(Nc2ncnc3ccc(I)cc23)c1 [compound 60, 60] showed a Ki [5] of 3700 nM, a Ki [6] of 4300 nM and a Ki [7] of 44 nM. The IC50 [8] was greater than 5000 nM.
In the case of C#Cc1cccc(Nc2ncnc3ccc(C(F)(F)F)cc23)c1 [compound 61, 61], the Ki [5] is reported as 3400 nM, the Ki [6] is reported as 3200 nM and the Ki [7] is reported as 150 nM. It also gave an IC50 [8] greater than 5000 nM.
In the case of C#Cc1cccc(Nc2ncnc3cc(F)ccc23)c1 [compound 62, 62], the Ki [5] is reported as 1200 nM, the Ki [6] is reported as 1200 nM and the Ki [7] is reported as 22 nM. It also gave an IC50 [8] of 4100 nM.
For C#Cc1cccc(Nc2ncnc3cc(Br)ccc23)c1 [compound 64, 64], the Ki [5] was 290 nM, the Ki [6] was 260 nM and the Ki [7] was 31 nM. The IC50 [8] was greater than 5000 nM.
With C#Cc1cccc(Nc2ncnc3cc(I)ccc23)c1 [compound 65, 65] the Ki [5] was 150 nM, the Ki [6] was 180 nM and the Ki [7] was 20 nM. The IC50 [8] was greater than 5000 nM.
Work on C#Cc1cccc(Nc2ncnc3cc(C(F)(F)F)ccc23)c1 [compound 66, 66] yielded a Ki [5] of 1000 nM, a Ki [6] of 1200 nM and a Ki [7] of 88 nM. It also gave an IC50 [8] greater than 5000 nM.
C#Cc1cccc(Nc2ncnc3ccc(C#N)cc23)c1 [compound 68, 68] was tested, and the Ki [5] was 4700 nM, the Ki [6] was 7900 nM and the Ki [7] was 170 nM. It also gave an IC50 [8] greater than 5000 nM.
Work on C#Cc1cccc(Nc2ncnc3ccc(OC)cc23)c1 [compound 70, 70] yielded a Ki [5] of 2200 nM, a Ki [6] of 2800 nM and a Ki [7] of 24 nM. It also gave an IC50 [8] of 2900 nM.
Work on C#Cc1cccc(Nc2ncnc3cc(OC)ccc23)c1 [compound 72, 72] yielded a Ki [5] of 460 nM, a Ki [6] of 670 nM and a Ki [7] of 8.8 nM. For the same compound, the IC50 [8] was 1200 nM.
C#Cc1cccc(Nc2ncnc3cc4c(cc23)OCO4)c1 [compound 73, 73] showed a Ki [5] of 1500 nM, a Ki [6] of 2700 nM and a Ki [7] of 19 nM. For the same compound, the IC50 [8] was 1700 nM.
C#Cc1ccc(F)c(Nc2ncnc3cc(C#N)ccc23)c1 [compound 87, 4-((5-ethynyl-2-fluorophenyl)amino)quinazoline-7-carbonitrile] gave a Ki [1] of 1200 nM, a Ki [3] of 670 nM and an IC50 [9] greater than 5000 nM. It also gave a Ki [4] of 560 nM.
For C#Cc1cccc(Nc2ncnc3cc(C#N)ccc23)c1F [compound 88, 88], the Ki [10] was 330 nM, the IC50 [9] was greater than 5000 nM and the Ki [11] was 500 nM. The Ki [12] was 1100 nM.
For C#Cc1cc(Nc2ncnc3cc(C#N)ccc23)ccc1F [compound 89, 89], the Ki [10] was 550 nM, the IC50 [9] was greater than 5000 nM and the Ki [11] was 870 nM. It also gave a Ki [12] of 690 nM.
Compound C#Cc1cc(Nc2ncnc3cc(C#N)ccc23)ccc1Cl [compound 90, 90] has a Ki [10] of 320 nM, an IC50 [9] greater than 5000 nM and a Ki [11] of 1600 nM. For the same compound, the Ki [12] was 6300 nM.
For C#Cc1ccc(F)c(Nc2ncnc3cc(I)ccc23)c1 [compound 91, 91], the Ki [10] was 110 nM, the IC50 [9] was greater than 5000 nM and the Ki [11] was 250 nM. The Ki [12] was 390 nM.
Work on C#Cc1cccc(Nc2ncnc3cc(I)ccc23)c1F [compound 92, 92] yielded a Ki [10] of 93 nM, an IC50 [9] greater than 5000 nM and a Ki [11] of 270 nM. For the same compound, the Ki [12] was 860 nM.
C#Cc1cc(Nc2ncnc3cc(I)ccc23)ccc1F [compound 93, 93] was tested, and the IC50 [9] was greater than 5000 nM, the Ki [11] was 110 nM and the Ki [12] was 110 nM.
In the case of C#Cc1cc(Nc2ncnc3cc(I)ccc23)ccc1Cl [compound 94, 94], the Ki [10] is reported as 92 nM, the IC50 [9] is reported as greater than 5000 nM and the Ki [11] is reported as 240 nM. It also gave a Ki [12] of 930 nM.
For C#Cc1ccc(F)c(Nc2ncnc3ccc(I)cc23)c1 [compound 95, 95], the Ki [10] was 190 nM, the IC50 [9] was greater than 5000 nM and the Ki [11] was 4900 nM. It also gave a Ki [12] of 4500 nM.
C#Cc1cccc(Nc2ncnc3ccc(I)cc23)c1F [compound 96, 96] was tested, and the Ki [10] was 290 nM, the IC50 [9] was greater than 5000 nM and the Ki [11] was 6700 nM. It also gave a Ki [12] of 18000 nM.
For C#Cc1cc(Nc2ncnc3ccc(I)cc23)ccc1F [compound 97, 97], the Ki [10] was 68 nM, the IC50 [9] was greater than 5000 nM and the Ki [11] was 870 nM. It also gave a Ki [12] of 1600 nM.
C#Cc1cc(Nc2ncnc3ccc(I)cc23)ccc1Cl [compound 98, 98] was tested, and the Ki [10] was 140 nM, the IC50 [9] was greater than 5000 nM and the Ki [11] was 1000 nM. It also gave a Ki [12] of 7100 nM.
Work on C#Cc1ccc(F)c(Nc2ncnc3cc(OC)c(OC)cc23)c1 [compound 99, 99] yielded a Ki [10] of 5.8 nM, an IC50 [9] of 390 nM and a Ki [11] of 220 nM. It also gave a Ki [12] of 280 nM.
With C#Cc1cccc(Nc2ncnc3cc(OC)c(OC)cc23)c1F [compound 100, 100] the IC50 [9] was 400 nM, the Ki [11] was 250 nM and the Ki [12] was 670 nM.
C#Cc1cc(Nc2ncnc3cc(OC)c(OC)cc23)ccc1F [compound 101, 101] gave a Ki [10] of 2.4 nM, an IC50 [9] of 140 nM and a Ki [11] of 47 nM. For the same compound, the Ki [12] was 72 nM.
C#Cc1cc(Nc2ncnc3cc(OC)c(OC)cc23)ccc1Cl [compound 102, 102] was tested, and the Ki [10] was 3.4 nM, the IC50 [9] was 390 nM and the Ki [11] was 75 nM. The Ki [12] was 330 nM.
